# Laboratory results taken from patent US11617711B2, “Compositions and methods for dental care” (UNIVERSITY OF WASHINGTON, priority 2018, dated 2023).
# Entries after “also recorded” stand apart in the source; their conditions may differ.
# What was measured:
# [1] = Fluoride delivery to tooth surface, EDXS of mineral layer; details: tooth surface treated with shADP5, then ionic fluoride (1100 ppm) delivered with ionic PO4
# Description: shADP5 enables the delivery of ionic fluoride delivery to the tooth surface. After the tooth surface was treated shADP5, ionic fluoride was delivered with ionic PO4.
# [2] = Visual observation of diffusion and mineralization reaction of calcium and phosphate gels on glass slide; format: physicochemical; details: gel formulation, calcium and phosphate gel drops on glass slide
# Excerpt: Active ingredients stored separately in their respective gel/varnish/toothpaste formulations is important in preventing premature mineralization reactions. In all formulations, the peptide is to be delivered first, then the ionic calcium/phosphate or ionic calcium/phosphate/fluoride are delivered second. Understanding the reaction time is useful to characterize the prescribed treatment time and procedure. To inform treatment protocol, an experiment was designed in which two drops of gels containing calcium and phosphate were mixed with peptide gel and placed next each other on a glass slide close enough that upon subsequent spreading of the two droplets, they would come to contact with each other at their respective edges. Mineralization reactions were monitored visually be observing parts of the gels turning from clear (unreacted) to white (reacted).
# Then the inverses of both quantities were taken to enable the determination of the diffusion constant based on the following equation: 1/t=D (1/x), where t is time, x is the width of reacted mineral (appear as white in FIG. 18) and D is the diffusion constant in units of mm/min. Shown in FIG. 19 is an example of the derived diffusion constants.
# [3] = Thermal cycling of remineralized dentin samples in artificial saliva, SEM; parameters: species or system human; details: 3 rounds remineralized, 2,500 cycles (90 days) between 5 C and 50 C
# Description: To ensure the thermal durability of the newly formed mineral layer on the dentin surface, thermal cycling tests were conducted on remineralized samples. After three rounds of peptide-guided remineralization, the sample was placed in a vial containing an artificial saliva solution consisting of 130 mM KCl, 20 mM HEPES, 1.5 mM CaCl2, 0.9 mM KH2PO4, and 1 mM NaCl. In order to mimic the temperature changes in the natural oral environment, the remineralized sample was cycled between 5 C and 50 C, holding for 30 seconds at each temperature. SEM images were taken of the mineral layer after 200 cycles (6 days) and 2,500 cycles (90 days) to compare the effects of thermal cycling at different time periods.
Sequence,fluoride in the mineral layer (EDXS) [1],extent of mineralization reaction versus without peptide [2],mineral layer after thermal cycling [3]
SYENSHSQAINVDRT [shADP5],incorporated,more extensive,–
"SYEKSHSQAINTDRT [sADP5, shortened amelogenin derived peptide 5]",–,–,still present; also recorded: thermally stable
